# How the values were obtained:
# [1] = tested on: IL-8 gene expression in TNFα-stimulated HaCaT cells; test: TNFα-induced IL-8 gene expression, real-time PCR; format: cell-based; details: 10 μM pretreatment 24 h, then 10 ng/mL TNFα 1 h
# Protocol: (§1) HaCaT cells were cultured with Dulbecco’s modified Eagle’s medium High Glucose (Lonza, Milan, Italy) supplemented with 10% FBS, 100 U/mL penicillin, 100 μg/mL streptomycin and 2 mM L-glutamine as previously described. Cells were maintained in a humidified incubator at 37 °C with 5% CO2 and incubated until the monolayer was 80% confluent. Medium was changed every 2 days.
# (§2) HaCaT cells were pretreated with or without 10 μM of both SCA and SCB for 24 h. Stock solutions of the two compounds were prepared in DMSO immediately before use and diluted to the final concentration in the culture medium. In some sets of experiments, betamethasone-17-valerate (10 µg/mL) served as a positive control; dimethyl sulfoxide (DMSO) served as a solvent control. After the pretreatments, cells were stimulated with 10 ng/mL TNFα for 1 h to induce the NFκB signaling pathway. Then, media were replaced with fresh culture medium. Cells and supernatants were collected at different time points for each set of experiments as described below.
# Quantitative real-time PCR was carried out as described in detail previously. Briefly, HaCaT cells were treated as indicated above and harvested for RNA extraction 3 h after the end of the proinflammatory stimulus with TNFα. […] Quantitative real-time PCR (qPCR) was performed using SYBR green on the CFX Multicolor real-time PCR detection system (Bio-Rad, Italy). […]
# [2] = tested on: p65 NF-κB nuclear translocation in HaCaT cells; test: TNFα-induced p65 NF-κB nuclear translocation, immunofluorescence; format: cell-based; details: 10 μM pretreatment 24 h, then 10 ng/mL TNFα 1 h
# Protocol: as §1, §2
# Briefly, HaCaT cells were seeded on coverslips at a density of 1 × 10^5 cell/mL and incubated with DMEM high glucose supplemented with FBS 10%. Then, HaCaT cells were treated as indicated above. At the end of the proinflammatory stimulus with TNFα, cells were fixed in 4% paraformaldehyde in PBS for 30 min at 4 °C as previously described. HaCaT cells were permeabilized for 5 min at RT with PBS containing 0.2% Triton X-100. After the blocking with 1% BSA in PBS at RT for 1 h, HaCaT cells were incubated with p65 NF-κB primary antibody (1:100, sc-372; Santa Cruz Biotechnology, Inc., Dallas, Texas, USA) in PBS containing 0.5% BSA at 4 °C overnight. After washing, coverslips were incubated with appropriate secondary antibody for 1 h at RT. Nuclei were stained with 1 μg/mL DAPI (Sigma- Aldrich, Italy) for 1 min. […] Fluorescence was examined using an Epifluorescence microscope (Nikon Eclipse E800; Nikon Corporation, Surrey, UK) equipped with a plan apochromat 100 × 0.5 − 1.3 oil immersion objective and a mercury lamp source.
smiles,measurement,setting,value
"Cc1ccc(O)c2c1CCC1C3CC[C@](O)(C(=O)CO)[C@@]3(C)CC(=O)[C@@]21O (stereo partly drawn) [SCA, 1,9β,17,21‐tetrahydoxy‐4‐methyl‐19‐nor‐9β‐pregna‐1,3,5(10)‐trien‐11,20‐dione]",effect on TNFα-triggered IL-8 mRNA upregulation,[1],completely abolish
same,effect on TNFα-stimulated translocation of p65 to the nucleus,[2],barely affected
"Cc1ccc(O)c2c1CCC1C3CC[C@](O)([C@H](O)CO)[C@@]3(C)CC(=O)[C@@]21O (stereo partly drawn) [SCB, 1,9β,17,20β,21‐ pentahydoxy‐4‐methyl‐19‐nor‐9β‐pregna‐1,3,5(10)‐trien‐11‐one]",effect on TNFα-triggered IL-8 mRNA upregulation,[1],completely abolish
same,effect on TNFα-stimulated translocation of p65 to the nucleus,[2],showed the ability in counteracting the proinflammatory stimulus

# From PMC9685055, “Biological activity of new bioactive steroids deriving from biotransformation of cortisone” (Microbial Cell Factories, 2022)
